Measured values as given in US20250340574A1, “MODULATORS OF CYSTIC FIBROSIS TRANSMEMBRANE CONDUCTANCE REGULATOR” (Vertex Pharmaceuticals Incorporated, priority 2022, published 2025).
Like-named read-outs stand apart in the source and are kept apart here.

Key:
[1] = biological target: T1, CFTR (F508del/MF-HBE cells) (Homo sapiens, UniProt P13569, DEL508-508); test: Ussing chamber assay of CFTR-mediated short-circuit currents, Assay D (single concentration of 1 μM); assay type: cell-based; conditions: with 44 nM potentiator and 18 μM Tezacaftor, 20% human serum; for D activity at 1 μM (%): 18-24 hours
T1 construct: human bronchial epithelial (HBE) cells derived from CF subjects heterozygous for F508del and a minimal function CFTR mutation (F508del/MF-HBE); endogenous in cells; host or cells: Primary human bronchial epithelial cells from CF subjects (F508del/MF genotype), differentiated at an air-liquid interface
T1 sequence (P13569 with tags, fused parts or gaps DEL508-508): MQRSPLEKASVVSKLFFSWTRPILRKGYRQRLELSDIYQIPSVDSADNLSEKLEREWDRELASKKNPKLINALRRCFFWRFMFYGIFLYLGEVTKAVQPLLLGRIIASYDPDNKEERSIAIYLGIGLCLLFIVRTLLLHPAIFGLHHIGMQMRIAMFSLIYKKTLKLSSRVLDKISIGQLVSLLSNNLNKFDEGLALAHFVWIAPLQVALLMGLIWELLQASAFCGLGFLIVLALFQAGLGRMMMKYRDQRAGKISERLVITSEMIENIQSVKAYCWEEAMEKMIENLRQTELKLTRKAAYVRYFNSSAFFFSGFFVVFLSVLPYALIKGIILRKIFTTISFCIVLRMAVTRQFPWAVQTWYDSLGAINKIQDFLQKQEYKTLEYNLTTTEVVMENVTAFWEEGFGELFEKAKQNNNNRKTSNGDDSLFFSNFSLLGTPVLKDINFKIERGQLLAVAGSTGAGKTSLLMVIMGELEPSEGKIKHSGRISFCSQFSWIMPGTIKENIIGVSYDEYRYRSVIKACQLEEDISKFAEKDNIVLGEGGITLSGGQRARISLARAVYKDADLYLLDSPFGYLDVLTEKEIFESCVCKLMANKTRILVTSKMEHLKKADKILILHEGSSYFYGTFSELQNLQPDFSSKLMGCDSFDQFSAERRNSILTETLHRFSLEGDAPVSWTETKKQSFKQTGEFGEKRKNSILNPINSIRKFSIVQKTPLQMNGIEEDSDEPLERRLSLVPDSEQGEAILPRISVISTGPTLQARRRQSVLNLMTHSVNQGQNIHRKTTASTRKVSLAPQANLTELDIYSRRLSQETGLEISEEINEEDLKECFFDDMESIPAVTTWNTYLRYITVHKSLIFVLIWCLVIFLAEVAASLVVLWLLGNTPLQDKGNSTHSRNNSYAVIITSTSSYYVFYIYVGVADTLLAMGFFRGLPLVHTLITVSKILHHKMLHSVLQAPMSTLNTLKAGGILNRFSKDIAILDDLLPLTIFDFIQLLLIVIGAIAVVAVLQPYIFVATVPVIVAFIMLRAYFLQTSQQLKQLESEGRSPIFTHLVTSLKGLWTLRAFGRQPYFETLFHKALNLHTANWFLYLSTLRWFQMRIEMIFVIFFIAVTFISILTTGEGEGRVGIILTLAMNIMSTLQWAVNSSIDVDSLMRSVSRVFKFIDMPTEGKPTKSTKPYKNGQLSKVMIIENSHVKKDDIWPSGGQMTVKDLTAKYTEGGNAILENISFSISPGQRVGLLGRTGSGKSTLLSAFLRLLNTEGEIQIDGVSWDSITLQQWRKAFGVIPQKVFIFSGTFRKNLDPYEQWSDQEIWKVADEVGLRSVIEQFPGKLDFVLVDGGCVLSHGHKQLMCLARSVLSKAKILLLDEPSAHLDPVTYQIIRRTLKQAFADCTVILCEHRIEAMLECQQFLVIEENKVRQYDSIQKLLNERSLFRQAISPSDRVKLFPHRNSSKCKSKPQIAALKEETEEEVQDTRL
Method: (§1) Ussing chamber experiments were performed using human bronchial epithelial (HBE) cells derived from CF subjects heterozygous for F508del and a minimal function CFTR mutation (F508del/MF-HBE) and cultured as previously described (Neuberger T, Burton B, Clark H, Van Goor F Methods Mol Biol 2011:741:39-54). After four days the apical media was removed, and the cells were grown at an air liquid interface for >14 days prior to use.
(§2) To isolate the CFTR-mediated short-circuit (ISC) current, F508del/MF-HBE grown on Costar® Snapwell™ cell culture inserts were mounted in an Ussing chamber and the transepithelial ISC was measured under voltage-clamp recording conditions (Vhold=0 mV) at 37° C. The basolateral solution contained (in mM) 145 NaCl, 0.83 K2HPO4, 3.3 KH2PO4, 1.2 MgCl2, 1.2 CaCl2, 10 Glucose, 10 HEPES (pH adjusted to 7.4 with NaOH) and the apical solution contained (in mM) 145 NaGluconate, 1.2 MgCl2, 1.2 CaCl2, 10 glucose, 10 HEPES (pH adjusted to 7.4 with NaOH) and 30 μM amiloride to block the epithelial sodium channel. Forskolin (20 μM) was added to the apical surface to activate CFTR, followed by apical addition of a CFTR inhibitor cocktail consisting of BPO, GlyH-101, and CFTR inhibitor 172 (each at 20 μM final assay concentration) to specifically isolate CFTR currents. The CFTR-mediated ISC (μA/cm^2) for each condition was determined from the peak forskolin response to the steady-state current following inhibition.
(§3) The activity of the CFTR corrector compounds on the CFTR-mediated ISC was determined in Ussing chamber studies as described above. The F508del/MF-HBE cell cultures were either incubated with the corrector compounds at a range of concentrations in combination with 33 nM (6R,12R)-17-amino-12-methyl-6,15-bis(trifluoromethyl)-13,19-dioxa-3,4,18-triazatricyclo[12.3.1.12,5]nonadeca-1(18),2,4,14,16-pentaen-6-ol and 18 μM Tezacaftor or were incubated with the corrector compounds at a single fixed concentration of 1 μM in combination with 44 nM (6R,12R)-17-amino-12-methyl-6,15-bis(trifluoromethyl)-13,19-dioxa-3,4,18-triazatricyclo[12.3.1.12,5]nonadeca-1(18),2,4,14,16-pentaen-6-ol and 18 μM Tezacaftor for 18-24 hours at 37° C. and in the presence of 20% human serum. The concentration of corrector compounds with 44 nM or 33 nM (6R,12R)-17-amino-12-methyl-6,15-bis(trifluoromethyl)-13,19-dioxa-3,4,18-triazatricyclo[12.3.1.12,5]nonadeca-1(18),2,4,14,16-pentaen-6-ol and 18 μM Tezacaftor during the 18-24 hours incubations was kept constant throughout the Ussing chamber measurement of the CFTR-mediated ISC to ensure compounds were present throughout the entire experiment. The efficacy and potency of the putative F508del correctors was compared to that of the known Vertex corrector, (14S)-8-[3-(2-{Dispiro[2.0.2.1]heptan-7-yl}ethoxy)-1H-pyrazol-1-yl]-12,12-dimethyl-2λ^6-thia-3,9,11,18,23-pentaazatetracyclo[17.3.1.111,14.05,10]tetracosa-1(22),5,7,9,19(23),20-hexaene-2,2,4-trione, in combination with 18 μM Tezacaftor and 1 μM Ivacaftor.
(§4) • Assay A: 0.1 μM to 25 μM, 6 concentrations • Assay B: 0.00001 μM to 25 μM, 12 concentrations • Assay C: 0.026 μM to 25 μM, 6 concentrations • Assay D: Activity at single concentration of 1 μM

[2] = biological target: T1, CFTR (F508del/MF-HBE cells); test: Ussing chamber assay of CFTR-mediated short-circuit currents, Assay C (0.026 μM to 25 μM, 6 concentrations); assay type: cell-based; conditions: with 33 nM potentiator and 18 μM Tezacaftor, 20% human serum; for Emax: read-out: C Max activity (%)
Method: as §1, §2, §3, §4

Structure (SMILES) | D activity at 1 μM (%) [1] | EC50 [2] | Emax [2] | other results
Cc1cccc(C)c1-c1nc2nc(c1C)OC[C@@H](COC(C)C)N(Cc1cnc3oc(C4CC4)cc3n1)C(=O)c1cccc(c1)S(=O)(=O)N2 [Compound I-181] | +++ (+++ is >60%) | – | – | –
Cc1cccc(C)c1-c1cc2nc(n1)NS(=O)(=O)c1cccc(c1)C(=O)N(Cc1cnc3oc(C4(C)CCC4)cc3n1)[C@H](COC(C)C)CO2 [Compound I-144] | +++ (+++ is >60%) | – | – | –
Cc1cccc(C)c1-c1cc2nc(n1)NS(=O)(=O)c1cccc(c1)C(=O)N(Cc1cnc3oc(C(C)(C)C)cc3n1)[C@@H](CCC1(C)CC1)CO2 [IV-10] | – | – | – | D act. at 1 μM (%) [1]: +++ (+++ is >60%)
Cc1cccc(C(C)C)c1-c1nc2nc(c1C)OC[C@@H](CC(C)(C)C)N(Cc1cnc3oc(C(C)C)cc3n1)C(=O)c1cccc(c1)S(=O)(=O)N2 (atropisomer, axis not shown) [Compound I-136] | +++ (+++ is >60%) | – | – | –
Cc1cccc(C)c1-c1cc2nc(n1)NS(=O)(=O)c1cccc(c1)C(=O)N(Cc1cnc3oc(C(C)C)c(C)c3n1)[C@H](COC1CCCC1)CO2 [Compound I-119] | +++ (+++ is >60%) | – | – | –
Cc1cccc(C)c1-c1cc2nc(n1)NS(=O)(=O)c1cccc(c1)C(=O)N(Cc1cnc3oc(C(C)C)cc3n1)[C@H](C=C1CCC1)CO2 [Compound I-153] | +++ (+++ is >60%) | – | – | –
Cc1cccc(C)c1-c1cc2nc(n1)NS(=O)(=O)c1cccc(c1)C(=O)N(Cc1nc3cc(C4(C)CC4)oc3cc1F)[C@H](COC(C)C)CO2 [Compound I-253] | +++ (+++ is >60%) | – | – | –
Cc1cccc(C)c1-c1cc2nc(n1)NS(=O)(=O)c1cccc(c1)C(=O)N(Cc1cnc3oc(C4CC4)cc3n1)[C@H](C[C@@H]1CCCO1)CO2 (stereo in doubt) [Compound I-45] | +++ (+++ is >60%) | – | – | –
Cc1cccc(C)c1-c1cc2nc(n1)NS(=N)(=O)c1cccc(c1)C(=O)N(Cc1cnc3oc(C4CC4)cc3n1)[C@H](CC(C)(C)C)CO2 (single isomer, unassigned) [Compound I-147] | +++ (+++ is >60%) | – | – | –
Cc1cccc(C)c1-c1cc2nc(n1)NS(=O)(=O)c1cccc(c1)C(=O)N(Cc1ncc3cc(C4CC4)n(C)c3n1)[C@H](COC(C)C)CO2 [IV-29] | – | – | – | D act. at 1 μM (%) [1]: +++ (+++ is >60%)
Cc1cccc(C)c1-c1cc2nc(n1)NS(=O)(=O)c1cccc(c1)C(=O)N(Cc1cnc3oc(C(C)C)cc3n1)C(CC(C)(C)C1CC1)CO2 (centres unmarked) [Compound I-105] | +++ (+++ is >60%) | – | – | –
Cc1cccc(OC(C)C)c1-c1nc2nc(c1C)OC[C@@H](CC(C)(C)C)N(Cc1cnc3oc(C(C)(C)C)cc3n1)C(=O)c1cccc(c1)S(=O)(=O)N2 (atropisomer, axis not shown) [Compound I-249] | – | 1000 to 3000 nM | – | Emax ([2]; 18-24 hours): > 60%
Cc1cccc(C)c1-c1cc2nc(n1)NS(=O)(=O)c1cccc(c1)C(=O)N(Cc1cnc3oc([C@H](C)CO)cc3n1)[C@H](CC1(C)CC1)CO2 [IV-52, (11R)-6-(2,6-Dimethylphenyl)-12-[[6-[(1R)-2-hydroxy-1-methyl-ethyl]furo[2,3-b]pyrazin-2-yl]methyl]-11-[(1-methylcyclopropyl)methyl]-2,2-dioxo-9-oxa-2λ^6-thia-3,5,12,19-tetrazatricyclo[12.3.1.14,8]nonadeca-1(18),4(19),5,7,14,16-hexaen-13-one] | – | 3000 to 30000 nM | > 60% | –
Cc1cccc(CC(C)C)c1-c1nc2nc(c1C)OC[C@@H](CC1(C)CC1)N(Cc1cnc3cc(C4(C(F)(F)F)CC4)n(C)c3n1)C(=O)c1cccc(c1)S(=O)(=O)N2 (atropisomer, axis not shown) [IV-77] | – | 1000 to 3000 nM | > 60% | –
Cc1cccc(C)c1-c1cc2nc(n1)NS(=O)(=O)c1cccc(c1)C(=O)N(Cc1cnc3cc(C(C)(C)C)n(C)c3n1)[C@@H](C(C1CCC1)C1CCC1)CO2 [IV-50] | – | < 1000 nM | > 60% | –
Cc1cccc(C)c1-c1cc2nc(n1)NS(=O)(=O)c1cccc(c1)C(=O)N(Cc1cnc3oc(C4CC4)cc3n1)[C@@H](C1(C(C)C)CC1)CO2 (single isomer, unassigned) [IV-61, 12-[(6-cyclopropylfuro[2,3-b]pyrazin-2-yl)methyl]-6-(2,6-dimethylphenyl)-11-(1-isopropylcyclopropyl)-2,2-dioxo-9-oxa-2λ^6-thia-3,5,12,19-tetrazatricyclo[12.3.1.14,8]nonadeca-1(18),4(19),5,7,14,16-hexaen-13-one] | – | 1000 to 3000 nM | > 60% | –
Cc1cccc(C)c1-c1cc2nc(n1)NS(=O)(=O)c1cccc(c1)C(=O)N(Cc1cnc3cc(C4(C(F)(F)F)CC4)n(C)c3n1)[C@H](CC1(C)CC1)CO2 [IV-75] | – | 1000 to 3000 nM | 30 to 60% | –
Cc1cccc(C)c1-c1cc2nc(n1)NS(=O)(=O)c1cccc(c1)C(=O)N(Cc1cnc3cc(C4(C(F)(F)F)CC4)n(C)c3n1)[C@H](CC13CC(C1)C3)CO2 [IV-73] | – | < 1000 nM | > 60% | –
CCc1cccc(CC)c1-c1cc2nc(n1)NS(=O)(=O)c1cccc(c1)C(=O)N(Cc1cnc3cc(C4(C)CC4)n(C)c3n1)[C@H](CC(C)(C)C)CO2 [IV-71] | – | 1000 to 3000 nM | > 60% | –
Cc1cccc(CC(C)C)c1-c1nc2nc(c1C)OC[C@@H](COC(C)C)N(Cc1cnc3oc(C(C)(C)C)cc3n1)C(=O)c1cccc(c1)S(=O)(=O)N2 (atropisomer, axis not shown) [IV-43] | – | 1000 to 3000 nM | > 60% | –
Cc1cccc(CC(C)C)c1-c1nc2nc(c1C)OC[C@@H](CC13CC(C1)C3)N(Cc1cnc3oc(C(C)(C)C)cc3n1)C(=O)c1cccc(c1)S(=O)(=O)N2 [Compound I-247] | – | < 1000 nM | – | Emax ([2]; 18-24 hours): > 60%
Cc1cccc(C)c1-c1cc2nc(n1)NS(=O)(=O)c1cccc(c1)C(=O)N(Cc1cnc3cc(C(C)(C)C)n(C)c3n1)[C@H](C1CCCO1)CO2 (single isomer, unassigned) [IV-97] | – | < 1000 nM | – | –
Cc1cccc(C)c1-c1cc2nc(n1)NS(=O)(=O)c1cccc(c1)C(=O)N(Cc1cnc3oc(C4CC5(CC5)C4)cc3n1)[C@H](CC1(C)CC1)CO2 [IV-65] | – | 1000 to 3000 nM | > 60% | –
Cc1cccc(C)c1-c1cc2nc(n1)NS(=O)(=O)c1cccc(c1)C(=O)N(Cc1cnc3oc(C(C)(C)CO)cc3n1)[C@H](CC1(C)CC1)CO2 [Compound I-112] | – | 3000 to 30000 nM | – | Emax ([2]; 18-24 hours): > 60%
Cc1cccc(C)c1-c1cc2nc(n1)NS(=O)(=O)c1cccc(c1)C(=O)N(Cc1cnc3cc(C(C)(C)C)n(C)c3n1)[C@H](C1CCCO1)CO2 (single isomer, unassigned) [IV-96] | – | < 1000 nM | > 60% | –
Cc1cccc(CCC(C)C)c1-c1nc2nc(c1C)OC[C@@H](CC(C)(C)C)N(Cc1cnc3cc(C(C)C)n(C)c3n1)C(=O)c1cccc(c1)S(=O)(=O)N2 (single isomer, unassigned) [Compound I-202] | – | < 1000 nM | – | Emax ([2]; 18-24 hours): > 60%
Cc1cccc(C)c1-c1cc2nc(n1)NS(=O)(=O)c1cccc(c1)C(=O)N(Cc1cnc3oc(C(C)(C)C)cc3n1)[C@H](C[C@@H]1CCCO1)CO2 [IV-83] | – | 1000 to 3000 nM | > 60% | –
Cc1cccc(CC(C)(C)C)c1-c1nc2nc(c1C)OC[C@@H](CC(C)(C)C)N(Cc1cnc3oc(C(C)(C)C)cc3n1)C(=O)c1cccc(c1)S(=O)(=O)N2 (atropisomer, axis not shown) [Compound I-245] | – | < 1000 nM | – | Emax ([2]; 18-24 hours): > 60%
